Measurements from patent publication US5556849A, “Ruthenium containing phthalocyanin photosensitizers” (priority 1991, dated 1996).

Legend:
[1] = Light absorption maxima and molar extinction coefficients; type: physicochemical
Experimental: (§1) Compounds according to the invention were assessed and characterised by their light absorption maxima, and their molar extinction coefficients according to conventional test procedures. Most of the compound were tested for their biological activity according to conventional test procedures in the art. The PC50 represents phototoxic concentration 50%. which is the concentration of compound when exposed to a light dose as described herein, causes a 50% reduction in cancer cell growth vs an untreated control population. The phototoxicity index. PI, is the ratio of the PC50 to the cytotoxic concentration 50%. where the growth is reduced by 50% without a light dose being given.

[2] = system: Adherent cells (HeLa RCA. SKOV OVCAR); assay: Phototoxicity (Light): 3H-thymidine incorporation in adherent cells after irradiation, with dark cytotoxicity for PI; type: cell-based; details: for PI (phototoxicity index): ratio of PC50 to cytotoxic concentration 50% (no light); for PC50 (phototoxic concentration 50%) / IC50: with light dose, 50% reduction in cancer cell growth vs untreated control, 24 h incubation with sensitizer; for IC50: read-out: PC50 (phototoxic concentration 50%)
Experimental: The media is removed and the cells washed three times with D-PBS. and then covered with D-PBS (200 μl ) and exposed to light from the same source used in the singlet oxygen assay.
This follows the procedure for phototoxicity except that the cells are never exposed to light. The assay is relative to a non-treated control.
as §1
PC50 is determined by a relatively simple in vitro assay on a cellular level, which is generally indicative of photosensitizing activity.

Compound	ε (molar extinction coefficient) [1] [M⁻¹ cm⁻¹]	λmax Q ([1]; in water (W))	PI (phototoxicity index) [2]	PC50 (phototoxic concentration 50%) [2]	IC50 [2] [µM]	λmax Q ([1]; in methanol (M))
Cc1cc2c(cc1C)C1=Nc3c4cc(C)c(C)cc4c4[n]3[Ru][n]3c(c5cc(C)c(C)cc5c3=NC3=NC(=N4)c4cc(C)c(C)cc43)=NC2=N1.O=C(O)c1cncc(C(=O)O)c1.O=C(O)c1cncc(C(=O)O)c1 [Ru(oMe)8 Pc(35PDCA2)]	63300	641	1	Inactive	–	–
Fc1c(F)c(F)c2c(c1F)C1=NC2=Nc2c3c(F)c(F)c(F)c(F)c3c3[n]2[Ru][n]2c(c4c(F)c(F)c(F)c(F)c4c2=NC2=NC(=N3)c3c(F)c(F)c(F)c(F)c32)=N1.O=C(O)c1cccnc1.O=C(O)c1cccnc1 [RuF16 Pc(Nic)2]	55700	–	–	Inactive	–	–
O=S(=O)(O)c1ccc[n+]([Ru-2]2([n+]3cccc(S(=O)(=O)O)c3)[n]3c4c5cc6ccccc6cc5c3N=C3N=C(N=c5c6cc7ccccc7cc6c([n]52)=NC2=NC(=N4)c4cc5ccccc5cc42)c2cc4ccccc4cc23)c1.[Na+].[Na+] [RuNc(3PS)2]	–	–	–	–	0.46	–
O=S(=O)([O-])c1ccc[n+]([Ru-2]2([n+]3cccc(S(=O)(=O)[O-])c3)[n]3c4c5cc6ccccc6cc5c3N=C3N=C(N=c5c6cc7ccccc7cc6c([n]52)=NC2=NC(=N4)c4cc5ccccc5cc42)c2cc4ccccc4cc23)c1.[Na+].[Na+] [RuNc(3PS)2]	83000	730	32.6	–	–	–
O=C(O)c1cccnc1.O=C(O)c1cccnc1.c1ccc2cc3c(cc2c1)C1=NC3=Nc2c3cc4ccccc4cc3c3[n]2[Ru][n]2c(c4cc5ccccc5cc4c2=NC2=NC(=N3)c3cc4ccccc4cc32)=N1 [RuNc(Nic)2]	169000	762	22.2	–	0.105	–
O=S(=O)([O-])c1cccc(P(c2ccccc2)c2ccccc2)c1.O=S(=O)([O-])c1cccc(P(c2ccccc2)c2ccccc2)c1.[K+].[K+].c1ccc2cc3c(cc2c1)C1=NC2=NC(=Nc4c5cc6ccccc6cc5c5[n]4[Ru][n]4c(c6cc7ccccc7cc6c4=N5)=NC3=N1)c1cc3ccccc3cc12 [RuNc(TPPMS)2]	54000	734	1.6	–	2.7	–
O=S(=O)([O-])c1cccc(P(c2cccc(S(=O)(=O)[O-])c2)c2cccc(S(=O)(=O)[O-])c2)c1.O=S(=O)([O-])c1cccc(P(c2cccc(S(=O)(=O)[O-])c2)c2cccc(S(=O)(=O)[O-])c2)c1.[Na+].[Na+].[Na+].[Na+].[Na+].[Na+].c1ccc2cc3c(cc2c1)C1=NC2=NC(=Nc4c5cc6ccccc6cc5c5[n]4[Ru][n]4c(c6cc7ccccc7cc6c4=N5)=NC3=N1)c1cc3ccccc3cc12 [RuNc(TPPTS)2]	–	720	–	–	> 100	–
NCCC(=O)[O-].NCCC(=O)[O-].[K+].[K+].c1ccc2cc3c(cc2c1)C1=NC2=NC(=Nc4c5cc6ccccc6cc5c5[n]4[Ru][n]4c(c6cc7ccccc7cc6c4=N5)=NC3=N1)c1cc3ccccc3cc12 [RuNc(β-ALA)2]	36500	730	1.51	–	0.96	–
O=S(=O)([O-])c1cccnc1.O=S(=O)([O-])c1cccnc1.[Na+].[Na+].c1ccc2c(c1)C1=NC2=Nc2c3ccccc3c3[n]2[Ru][n]2c(c4ccccc4c2=NC2=NC(=N3)c3ccccc32)=N1 [RuPc(3PS)2]	736000	630	> 109	–	0.929	–
Nc1ccc(O)c(C(=O)O)c1.Nc1ccc(O)c(C(=O)O)c1.c1ccc2c(c1)C1=NC3=NC(=Nc4c5ccccc5c5[n]4[Ru][n]4c(c6ccccc6c4=N5)=NC2=N1)c1ccccc13 [RuPc(5AS)2]	66500	–	–	–	2	–
O=C(O)c1ccncc1C(=O)O.O=C(O)c1ccncc1C(=O)O.c1ccc2c(c1)C1=NC2=Nc2c3ccccc3c3[n]2[Ru][n]2c(c4ccccc4c2=NC2=NC(=N3)c3ccccc32)=N1 [RuPc(34PDCA)2]	58800	630	47.6	–	2.1	–
O=C(O)c1cncc(C(=O)O)c1.O=C(O)c1cncc(C(=O)O)c1.c1ccc2c(c1)C1=NC2=Nc2c3ccccc3c3[n]2[Ru][n]2c(c4ccccc4c2=NC2=NC(=N3)c3ccccc32)=N1 [RuPc(35PDCA)2]	48400	632	> 5.6	–	18	–
Nc1cccc(C(=O)O)c1.Nc1cccc(C(=O)O)c1.c1ccc2c(c1)C1=NC3=NC(=Nc4c5ccccc5c5[n]4[Ru][n]4c(c6ccccc6c4=N5)=NC2=N1)c1ccccc13 [RuPc(ABA)2]	72500	638	8.8	–	3.5	–
N#Cc1cccc(C(=O)O)c1.N#Cc1cccc(C(=O)O)c1.c1ccc2c(c1)C1=NC3=NC(=Nc4c5ccccc5c5[n]4[Ru][n]4c(c6ccccc6c4=N5)=NC2=N1)c1ccccc13 [RuPc(CBA)2]	97600	650	10.2	–	0.42	–
O=C(O)c1cccnc1.O=C(O)c1cccnc1.c1ccc2c(c1)C1=NC2=Nc2c3ccccc3c3[n]2[Ru][n]2c(c4ccccc4c2=NC2=NC(=N3)c3ccccc32)=N1 [RuPc(Nic)2]	648000	630	> 79	–	1.26	–
O.O.O.O.O=S(=O)([O-])CCc1cc[n+]([Ru-2]2([n+]3ccc(CCS(=O)(=O)[O-])cc3)[n]3c4c5ccccc5c3N=C3N=C(N=c5c6ccccc6c([n]52)=NC2=NC(=N4)c4ccccc42)c2ccccc23)cc1.[K+].[K+] [RuPc(PES)2 (Ex 2), K2 [Ru(Pc)bis(4-pyridineethanesulfonate)]tetrahydrate]	72500	632	1	Inactive	–	–
O=S(=O)([O-])c1cccc(P(c2ccccc2)c2ccccc2)c1.O=S(=O)([O-])c1cccc(P(c2ccccc2)c2ccccc2)c1.[K+].[K+].c1ccc2c(c1)C1=NC3=NC(=Nc4c5ccccc5c5[n]4[Ru][n]4c(c6ccccc6c4=N5)=NC2=N1)c1ccccc13 [RuPc(TPPMS)2]	90300	652	–	–	–	–
O=S(=O)([O-])c1cccc(P(c2cccc(S(=O)(=O)[O-])c2)c2cccc(S(=O)(=O)[O-])c2)c1.O=S(=O)([O-])c1cccc(P(c2cccc(S(=O)(=O)[O-])c2)c2cccc(S(=O)(=O)[O-])c2)c1.[Na+].[Na+].[Na+].[Na+].[Na+].[Na+].c1ccc2c(c1)C1=NC3=NC(=Nc4c5ccccc5c5[n]4[Ru][n]4c(c6ccccc6c4=N5)=NC2=N1)c1ccccc13 [RuPc(TPPTS)2]	87400	650	> 15	–	11.3	–
NCCS(=O)(=O)[O-].NCCS(=O)(=O)[O-].O.O.O.O.O.O.[Na+].[Na+].c1ccc2c(c1)C1=NC3=NC(=Nc4c5ccccc5c5[n]4[Ru][n]4c(c6ccccc6c4=N5)=NC2=N1)c1ccccc13 [RuPc(Tau)2 (Ex 3), Na2 [Ru(Pc)bis(taurine)]hexahydrate]	79800	634	> 1.1	–	9	623
O=C([O-])c1cccc(P(c2ccccc2)c2ccccc2)c1.[Na+].c1ccc2c(c1)C1=NC2=Nc2c3ccccc3c3[n]2[Ru][n]2c(c4ccccc4c2=NC2=NC(=N3)c3ccccc32)=N1.c1ccncc1 [RuPc(py)(TPPMC)]	54600	644	–	–	–	–
NCCC(=O)[O-].NCCC(=O)[O-].[K+].[K+].c1ccc2c(c1)C1=NC3=NC(=Nc4c5ccccc5c5[n]4[Ru][n]4c(c6ccccc6c4=N5)=NC2=N1)c1ccccc13 [RuPc(β-ALA)2]	105000	–	–	–	1.9	–
O=C(O)c1cccnc1.O=C(O)c1cccnc1.c1cnc2c(n1)C1=NC2=Nc2c3nccnc3c3[n]2[Ru][n]2c(c4nccnc4c2=NC2=NC(=N3)c3nccnc32)=N1 [RupyrPc(Nic)2]	45100	625	1	Inactive	–	–
